Laboratory results reported in patent EP0326331B1, “Substituted quinolines and cinnolines” (Dow AgroSciences LLC, priority 1988, dated 1989).

Assays:
Type in all cases: in vivo
[1] = system: Twospotted spider mites (Tetranychus urticae Koch); test: Mite/insect screen, SM; conditions: for mortality at 200 ppm / mortality at 400 ppm: Tetranychus urticae, foliar, percent mortality, foliar spray on squash, read-out: SM RESULTS %; for mortality at 200 ppm: rate 200 ppm; for mortality at 400 ppm: rate 400 ppm; for activity as miticides: summary statement in the description
Method in brief: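 Compounds dissolved in 50:50 acetone/alcohol containing sulfonate/nonionic emulsifier blends, then diluted with water to the indicated concentrations. Leaves sprayed on both surfaces to runoff at 10 psi and dried one hour. Percent mortality scored after standard exposure periods.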

[2] = system: Pyricularia oryzae (rice blast); test: whole plant or invertebrate; conditions: for RICE BLAST: disease control rating, foliar spray on rice, 400 ppm (+++ at 100 ppm); for pest or weed control at 400 ppm: Pyricularia oryzae, foliar, read-out: RICE BLAST, Test 1, foliar spray on rice, disease control rating at 400 ppm / 100 ppm
[3] = system: melon aphids (Aphis gossypii Glover); test: Mite/insect screen, MA; conditions: Aphis gossypii, foliar, percent mortality, foliar spray on squash, read-out: MA RESULTS %; for mortality at 200 ppm: rate 200 ppm; for mortality at 400 ppm: rate 400 ppm
Method in brief: (§1)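 Formulation: acetone/alcohol 50:50 + sulfonate/nonionic emulsifiers, water-diluted to indicated concs. Spray both leaf surfaces to runoff, 10 psi; dry 1 h. Armyworm: 2 excised uninfested leaves in Petri dish. Score % mortality after standard exposure.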

[4] = system: southern armyworm (Spodopetra eridania Cramer); test: Mite/insect screen, SAW; conditions: Spodoptera eridania, foliar, percent mortality, foliar spray on squash, read-out: SAW RESULTS %; for mortality at 200 ppm: rate 200 ppm; for mortality at 400 ppm: rate 400 ppm
Method in brief: as §1

[5] = system: Erysiphe graminis tritici (powdery mildew); test: Test 1 greenhouse foliar spray screen, powdery mildew on wheat; conditions: for POWD MDEW: disease control rating, foliar spray on wheat, 400 ppm (+++ at 100 ppm); for pest or weed control at 400 ppm: Blumeria graminis, foliar, Test 1, foliar spray on wheat, disease control rating at 400 ppm / 100 ppm, read-out: POWD MDEW
[6] = system: Botrytis cinerea (gray mold); test: Test 1 greenhouse foliar spray screen, gray mold on grape berries; conditions: for GRAY MOLD: disease control rating, spray on grape berries, 400 ppm (+++ at 100 ppm); for pest or weed control at 400 ppm: Botrytis cinerea, foliar, Test 1, spray on grape berries, disease control rating at 400 ppm / 100 ppm
[7] = system: corn rootworm; test: Mite/insect screen, CRW; conditions: percent mortality, read-out: CRW RESULTS %; for mortality at 12 ppm: CRW rate 12.00 ppm; for mortality at 24 ppm: CRW rate 24.00 ppm
Method in brief: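 Percent mortality is evaluated once the standard exposure period ends. Test material is applied as a water dilution of an acetone/alcohol (50:50) stock carrying two sulfonate/nonionic emulsifiers (23 and 13 g per liter).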

[8] = system: Puccinia recondita tritici (leaf rust); test: Test 1 greenhouse foliar spray screen, leaf rust on wheat; conditions: for LEAF RUST: disease control rating, foliar spray on wheat, 400 ppm (+++ at 100 ppm); for pest or weed control at 400 ppm: Puccinia recondita, foliar, Test 1, foliar spray on wheat, disease control rating at 400 ppm / 100 ppm
[9] = system: Pseudoperonospora cubensis (downy mildew); test: Test 1 greenhouse foliar spray screen, downy mildew on squash; conditions: for DOWN MDEW: disease control rating, foliar spray on squash, 400 ppm (+++ at 100 ppm); for pest or weed control at 400 ppm: Pseudoperonospora cubensis, foliar, Test 1, foliar spray on squash, disease control rating at 400 ppm / 100 ppm, read-out: DOWN MDEW

SMILES	mortality at 200 ppm [1] [%]	mortality at 400 ppm [1] [%]	RICE BLAST [2]	mortality at 200 ppm [3] [%]	mortality at 400 ppm [3] [%]	mortality at 200 ppm [4] [%]	mortality at 400 ppm [4] [%]	POWD MDEW [5]	GRAY MOLD [6]	mortality at 12 ppm [7] [%]	mortality at 24 ppm [7] [%]	LEAF RUST [8]	DOWN MDEW [9]	pest or weed control at 400 ppm [2] [%]	pest or weed control at 400 ppm [5] [%]	pest or weed control at 400 ppm [6] [%]	pest or weed control at 400 ppm [8] [%]	pest or weed control at 400 ppm [9] [%]	activity as miticides [1]
FC(F)(F)c1ccc2c(NCCC3=CCCCC3)ccnc2c1 [Example 167, N-[2-(1-cyclohexenyl)ethyl]-7-(trifluoromethyl)-4-quinolinamine]	0	0	- (0-19% control at 400 ppm)	0	0	0	0	+ (20-89% control at 400 ppm)	- (0-19% control at 400 ppm)	0	0	- (0-19% control at 400 ppm)	+ (20-89% control at 400 ppm)	–	–	–	–	–	–
Fc1cccc2c(NCCC3CCCCC3)ccnc12 [Example 177, N-(2-cyclohexylethyl)-8-fluoro-4-quinolinamine]	0	0	+++ (90-100% control at 100 ppm)	0	0	0	0	++ (90-100% control at 400 ppm)	- (0-19% control at 400 ppm)	0	100	+++ (90-100% control at 100 ppm)	+++ (90-100% control at 100 ppm)	–	–	–	–	–	–
Cc1cc(C)c2nccc(NCCC3CCCCC3)c2c1 [Example 178, N-(2-cyclohexylethyl)-6,8-dimethyl-4-quinolinamine]	0	0	+ (20-89% control at 400 ppm)	0	0	0	0	- (0-19% control at 400 ppm)	- (0-19% control at 400 ppm)	0	0	++ (90-100% control at 400 ppm)	+++ (90-100% control at 100 ppm)	–	–	–	–	–	–
CC(=O)N(CCc1ccc(Cl)cc1)c1cc(N(CCc2ccc(Cl)cc2)C(C)=O)c2ccccc2n1 [Example 182, N,N'-(2,4-quinolinediyl)bis[N-[2-(4-chlorophenyl)ethyl]acetamide]]	0	0	+ (20-89% control at 400 ppm)	0	0	0	0	- (0-19% control at 400 ppm)	- (0-19% control at 400 ppm)	0	0	- (0-19% control at 400 ppm)	- (0-19% control at 400 ppm)	–	–	–	–	–	–
Clc1ccc(CCNc2ccc3nccc(NCCc4ccc(Cl)cc4)c3c2)cc1 [Example 185, N,N'-bis[2-(4-chlorophenyl)ethyl]-4,6-quinolinediamine]	0	0	+ (20-89% control at 400 ppm)	0	0	0	0	- (0-19% control at 400 ppm)	- (0-19% control at 400 ppm)	0	0	+ (20-89% control at 400 ppm)	+ (20-89% control at 400 ppm)	–	–	–	–	–	–
Fc1cccc2c(NCCc3ccc(Cl)cc3)cc(NCCc3ccc(Cl)cc3)nc12 [Example 188, N,N'-bis[2-(4-chlorophenyl)ethyl]-8-fluoro-2,4-quinolinediamine]	–	0	–	–	0	–	0	–	–	–	0	–	–	90 to 100	0 to 19	0 to 19	20 to 89	90 to 100	–
CC(=O)N(CCc1ccc(Cl)cc1)c1ccc2c(N(CCc3ccc(Cl)cc3)C(C)=O)ccnc2c1 [Example 191, N,N'-(4,7-quinolinediyl)bis[N-[2-(4-chlorophenyl)ethyl]acetamide]]	0	0	–	0	0	0	0	–	–	0	0	–	–	20 to 89	0 to 19	0 to 19	90 to 100	0 to 19	–
Cc1ccc(CCOc2cc(Cl)nc3c(F)cccc23)cc1 [Example 193, 2-chloro-8-fluoro-4-[2-(4-methylphenyl)ethoxy]quinoline]	0	0	–	0	0	0	0	–	–	0	0	–	–	0 to 19	0 to 19	0 to 19	20 to 89	0 to 19	–
Clc1cc(Cl)c2c(OCCc3ccc(-c4ccccc4)cc3)ccnc2c1 [Example 194, 5,7-dichloro-4-[2-(1,1'-biphenyl)-4-ylethoxy]quinoline]	0	0	–	0	0	0	0	–	–	0	0	–	–	0 to 19	20 to 89	0 to 19	0 to 19	0 to 19	–
COc1cccc(CCOc2ccnc3c(F)cccc23)c1 [Example 195, 4-[2-(3-methoxyphenyl)ethoxy]-8-fluoroquinoline]	–	0	–	–	0	–	0	–	–	–	0	–	–	90 to 100	90 to 100	0 to 19	90 to 100	90 to 100	–
COc1ccc(CCOc2ccnc3c(F)cccc23)cc1 [Example 196, 8-fluoro-4-[2-(4-methoxyphenyl)ethoxy]quinoline]	–	100	–	–	100	–	0	–	–	–	0	–	–	90 to 100	90 to 100	0 to 19	90 to 100	90 to 100	particularly excellent activity
Fc1cccc2c(OCCc3cccc(Oc4ccccc4)c3)ccnc12 [Example 197, 8-fluoro-4-[2-(3-phenoxyphenyl)ethoxy]quinoline]	–	90	–	–	80	–	80	–	–	–	0	–	–	90 to 100	90 to 100	0 to 19	90 to 100	20 to 89	particularly excellent activity
CC(C)(C)c1ccc(CCOc2ccnc3c(Br)cccc23)cc1 [Example 198, 8-bromo-4-[2-(4-(t-butyl)phenyl)ethoxy]quinoline]	–	90	–	–	80	–	0	–	–	–	0	–	–	0 to 19	0 to 19	0 to 19	0 to 19	0 to 19	–
COc1ccc(CCOc2ccnc3c(F)cccc23)cc1OC [Example 199, 4-[2-(3,4-dimethoxyphenyl)ethoxy]-8-fluoroquinoline]	–	0	–	–	0	–	0	–	–	–	100	–	–	90 to 100	90 to 100	0 to 19	90 to 100	90 to 100	–
